From patent US4201860A, “Purine derivatives” (Bristol-Myers Company, priority 1979, dated 1980)

Tests used:
[1] = in words; cited from earlier work
[2] = in words; known disadvantages; cited from earlier work
[3] = test system: arterial blood pressure / intratracheal pressure; test: Separation of bronchodilator and cardiovascular effects, ratio of hypotensive ED20 / bronchodilating ED50; assay type: in vivo, guinea pig
Method: (§1) The trachea of anesthetized guinea pig was cannulated and the ITP recorded on a polygraph under artificial ventilation. Arterial blood pressure (ABP; measure of hypotensive activity) was also measured during the experiment. Data was obtained for both intravenous and intraduodenal administration.
To assess the separation of desirable bronchodilator activity from undesirable cardiovascular (hypotensive) effect in the test compounds, the ratio of hypotensive ED20 /bronchodilating ED50 was calculated and indicated in Table 1.

[4] = test system: Arterial blood pressure (ABP); test: In vivo hypotensive activity, arterial blood pressure (ABP) in anesthetized guinea pig; details: arterial blood pressure lowering (ED20, 20% reduction)
Method: as §1, with “Pharmac., 21, 379 (1969). The” for “The”

platelet aggregation = details: in words; Chem Pharm. Bull., 25(7), 1811-1821 (1977); cited from earlier work

SMILES: Cn1c(=O)c2[nH]cnc2n(C)c1=O [aminophylline]
- solubility [1]: readily soluble
- side effects [2]: gastric irritation and cardiovascular and central nervous system side effects

SMILES: CCCCOc1nc(N)c2ncn(C3CCCCC3)c2n1 [n-C4 H9 O]
- ABP/ITP ([3]; Intraduodenal): 5.9
- ABP/ITP ([3]; Intravenous): 1467
- ABP lowering, ED20 (20% reduction) ([4]; Intraduodenal): 8.3 mg/kg
- ABP lowering, ED20 (20% reduction) ([4]; Intravenous): 4.4 mg/kg

SMILES: CCCCCOc1nc(N)c2ncn(C3C=CCCC3)c2n1 (stereo not shown) [n-C5 H11 O]
- ABP lowering, ED20 (20% reduction) ([4]; Intravenous): > 3 mg/kg

SMILES: CCCOc1nc(N)c2ncn(C3CCCCC3)c2n1 [n-C3 H7 O]
- ABP/ITP ([3]; Intraduodenal): 15
- ABP/ITP ([3]; Intravenous): 12
- ABP lowering, ED20 (20% reduction) ([4]; Intraduodenal): 18 mg/kg
- ABP lowering, ED20 (20% reduction) ([4]; Intravenous): 4.4 mg/kg

SMILES: Nc1nc(SC2CCCC2)nc2c1ncn2C1CCCC1
- platelet aggregation inhibition (platelet aggregation): slightly effective

SMILES: Nc1nc(Cl)nc2c1ncn2C1C=CCCC1 (stereo not shown) [Cl]
- ABP/ITP ([3]; Intravenous): 17
- ABP lowering, ED20 (20% reduction) ([4]; Intravenous): 2.5 mg/kg

SMILES: CCOc1nc(N)c2ncn(C3C=CCCC3)c2n1 (stereo not shown) [C2 H5 O]
- ABP/ITP ([3]; Intraduodenal): 19
- ABP/ITP ([3]; Intravenous): 12
- ABP lowering, ED20 (20% reduction) ([4]; Intraduodenal): 12 mg/kg
- ABP lowering, ED20 (20% reduction) ([4]; Intravenous): 4.0 mg/kg

SMILES: CC(C)COc1nc(N)c2ncn(C3C=CCCC3)c2n1 (stereo not shown) [iso-C4 H9 O]
- ABP lowering, ED20 (20% reduction) ([4]; Intravenous): 2.4 mg/kg

SMILES: CCCOc1nc(N)c2ncn(C3C=CCCC3)c2n1 (stereo not shown) [n-C3 H7 O]
- ABP/ITP ([3]; Intraduodenal): 2.0
- ABP/ITP ([3]; Intravenous): 5.9
- ABP lowering, ED20 (20% reduction) ([4]; Intraduodenal): 2.4 mg/kg
- ABP lowering, ED20 (20% reduction) ([4]; Intravenous): 2.0 mg/kg

SMILES: CCCCCCOc1nc(N)c2ncn(C3CCCCC3)c2n1 [n-C6 H13 O]
- ABP lowering, ED20 (20% reduction) ([4]; Intravenous): > 3 mg/kg

SMILES: CCCCCCOc1nc(N)c2ncn(C3C=CCCC3)c2n1 (stereo not shown) [n-C6 H13 O]
- ABP lowering, ED20 (20% reduction) ([4]; Intravenous): 2.7 mg/kg

SMILES: CCOc1nc(N)c2ncn(C3CCCCC3)c2n1 [C2 H5 O]
- ABP/ITP ([3]; Intravenous): 6.8
- ABP lowering, ED20 (20% reduction) ([4]; Intravenous): 2.5 mg/kg

SMILES: CCCCCOc1nc(N)c2ncn(C3CCCCC3)c2n1 [n-C5 H11 O]
- ABP lowering, ED20 (20% reduction) ([4]; Intravenous): > 3 mg/kg

SMILES: CCCCOc1nc(N)c2ncn(C3C=CCCC3)c2n1 (stereo not shown) [n-C4 H9 O]
- ABP/ITP ([3]; Intravenous): > 4.8
- ABP lowering, ED20 (20% reduction) ([4]; Intravenous): > 3 mg/kg

SMILES: CC(C)COc1nc(N)c2ncn(C3CCCCC3)c2n1 [iso-C4 H9 O]
- ABP lowering, ED20 (20% reduction) ([4]; Intravenous): > 3 mg/kg
